Test results reported in patent US10227357B2, “Compounds and methods for kinase modulation, and indications therefor” (Plexxikon Inc., priority 2012, dated 2019).

Key:
c-kit mutant D816V = molecular target: T1, c-kit mutant D816V (Homo sapiens, UniProt P10721, D816V/DEL694-753); assay: c-Kit mutant D816V biochemical assay, AlphaScreen; details: c-kit D816V biochemical inhibitory activity; read-out: Biochemical activity (IC50 μM) Kit D816V
T1 construct: residues 551-934, kinase insertion domain residues 694-753 deleted; 6x-histidine (N); made in house; host or cells: E. coli Arctic Express (DE3) RIL (Stratagene)
Outline: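 Eight-point, threefold compound series incubated 30 min at room temperature with E. coli-produced D816V kinase, 10 μM ATP, Mg2+/Mn2+ HEPES buffer pH 7.2 and 5% DMSO. After EDTA stop, streptavidin and anti-phosphotyrosine (PY20) AlphaScreen beads gave the read-out, and IC50 was fitted from the concentration–signal curve.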

c-kit kinase = molecular target: T2, c-kit kinase (Homo sapiens, UniProt P10721); assay: c-Kit biochemical assay, AlphaScreen, 10 μM ATP; details: c-kit biochemical inhibitory activity; read-out: Biochemical activity (IC50 μM) Kit
T2 construct: The c-kit (or kinase domain thereof) is an active kinase in AlphaScreen; poly-Histidine tag (in-house protein only) (cleaved yes); host or cells: E. coli BL21(DE3)RIL, co-expressed with PTP1B
Outline: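 His-tagged c-Kit expressed in E. coli with co-expressed PTP1B (dephosphorylated), tag removed; 0.1 ng per reaction with biotinylated-peptide substrate in 50 mM HEPES pH 7.2, 5 mM MgCl2, 5 mM MnCl2, 5% DMSO, 10 μM ATP, 1 h at room temperature. Phosphorylation detected by AlphaScreen (streptavidin donor, PY20 acceptor beads); IC50 from 8-point 1:3 dilution series.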

T2 sequence (P10721 26-976): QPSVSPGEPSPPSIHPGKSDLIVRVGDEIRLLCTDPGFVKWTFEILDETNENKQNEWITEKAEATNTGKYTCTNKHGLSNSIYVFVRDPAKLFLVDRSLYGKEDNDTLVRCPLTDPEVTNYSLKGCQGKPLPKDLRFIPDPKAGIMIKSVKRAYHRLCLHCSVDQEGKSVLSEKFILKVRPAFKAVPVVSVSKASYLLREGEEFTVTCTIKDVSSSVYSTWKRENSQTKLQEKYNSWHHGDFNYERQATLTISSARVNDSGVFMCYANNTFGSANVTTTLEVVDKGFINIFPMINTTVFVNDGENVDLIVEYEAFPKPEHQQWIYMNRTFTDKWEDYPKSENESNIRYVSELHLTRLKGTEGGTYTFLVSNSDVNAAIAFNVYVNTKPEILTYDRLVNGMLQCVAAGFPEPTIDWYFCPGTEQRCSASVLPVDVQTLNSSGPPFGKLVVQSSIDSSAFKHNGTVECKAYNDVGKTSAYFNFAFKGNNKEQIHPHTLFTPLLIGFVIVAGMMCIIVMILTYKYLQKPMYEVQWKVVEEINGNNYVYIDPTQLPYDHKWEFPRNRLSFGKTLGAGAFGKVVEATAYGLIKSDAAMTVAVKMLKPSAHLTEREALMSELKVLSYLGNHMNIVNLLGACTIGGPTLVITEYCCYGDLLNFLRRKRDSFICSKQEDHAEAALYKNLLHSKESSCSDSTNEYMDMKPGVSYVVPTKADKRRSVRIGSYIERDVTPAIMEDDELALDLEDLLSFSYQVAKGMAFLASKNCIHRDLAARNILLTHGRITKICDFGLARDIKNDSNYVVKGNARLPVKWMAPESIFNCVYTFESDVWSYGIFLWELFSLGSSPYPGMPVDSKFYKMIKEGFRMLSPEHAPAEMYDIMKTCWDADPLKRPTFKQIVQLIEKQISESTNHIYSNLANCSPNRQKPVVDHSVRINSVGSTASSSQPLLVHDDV
T1 sequence (P10721 with tags, fused parts or gaps DEL694-753/D816V): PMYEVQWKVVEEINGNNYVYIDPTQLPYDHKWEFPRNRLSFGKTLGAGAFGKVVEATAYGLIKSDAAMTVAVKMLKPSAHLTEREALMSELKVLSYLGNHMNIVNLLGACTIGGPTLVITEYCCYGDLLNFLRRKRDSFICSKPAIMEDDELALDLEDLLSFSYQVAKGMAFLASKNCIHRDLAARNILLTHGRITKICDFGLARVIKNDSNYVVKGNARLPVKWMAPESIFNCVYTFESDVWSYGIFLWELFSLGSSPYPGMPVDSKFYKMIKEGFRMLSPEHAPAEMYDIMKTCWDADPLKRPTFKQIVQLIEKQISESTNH

| Structure (SMILES) | IC50 (c-kit mutant D816V) [µM] | IC50 (c-kit kinase) [µM] |
| --- | --- | --- |
| O=C(Nc1ccc(OC(F)(F)F)cc1)N1CCN(c2ncnc3[nH]c(-c4ccncc4)cc23)CC1 [P-0102, 4-[6-(4-pyridyl)-7H-pyrrolo[2,3-d]pyrimidin-4-yl]-N-[4-(trifluoromethoxy)phenyl]piperazine-1-carboxamide] | 1 to 10 | 0.0001 to 1 |
| CS(=O)(=O)Nc1cccc(-c2cc3c(N4CCN(C(=O)NCc5ccc(F)cc5)CC4)ncnc3[nH]2)c1 [P-0107, N-[(4-fluorophenyl)methyl]-4-[6-[3-(methanesulfonamido)phenyl]-7H-pyrrolo[2,3-d]pyrimidin-4-yl]piperazine-1-carboxamide] | 0.0001 to 1 | 1 to 10 |
| Cc1ccc(-c2cc3c(N4CCN(c5nc6ccccc6[nH]5)CC4)ncnc3[nH]2)cn1 [P-0013, 4-[4-(1H-benzimidazol-2-yl)piperazin-1-yl]-6-(6-methyl-3-pyridyl)-7H-pyrrolo[2,3-d]pyrimidine] | 0.0001 to 1 | 1 to 10 |
| N#Cc1cc2c(N3CCN(C(=O)NCc4ccc(F)cc4)CC3)ncnc2[nH]1 [P-0150, 4-(6-cyano-7H-pyrrolo[2,3-d]pyrimidin-4-yl)-N-[(4-fluorophenyl)rnethyl]piperazine-1-carboxamide] | 10 to 200 | 10 to 200 |
| COc1cccc([C@H](C)NC(=O)N2CCN(c3ncnc4[nH]c(-c5ccc(F)cc5)cc34)CC2)c1 [P-0144, 4-[6-(4-fluorophenyl)-7H-pyrrolo[2,3-d]pyrimidin-4-yl]-N-[(1S)-1-(3-methoxyphenyl)ethyl]piperazine-1-carboxamide] | 0.0001 to 1 | 1 to 10 |
| Cc1ccc(S(=O)(=O)Nc2ccc(-c3ncnc4[nH]c(C)c(C)c34)cc2)cc1 [P-0449, N-[4-(5,6-dimethyl-7H-pyrrolo[2,3-d]pyrimidin-4-yl)phenyl]-4-methyl-benzenesulfonamide] | 1 to 10 | 1 to 10 |
| CNS(=O)(=O)c1ccc(-c2ncnc3[nH]c(-c4ccc(F)cc4)cc23)cc1 [P-0430, 4-[6-(4-fluorophenyl)-7H-pyrrolo[2,3-d]pyrimidin-4-yl]-N-methyl-benzenesulfonamide] | 0.0001 to 1 | 1 to 10 |
| COc1cccc([C@H](C)NC(=O)N2CCN(c3ncnc4[nH]c(C)cc34)C[C@H]2C)c1 [P-0683, (2R)-N-[(1S)-1-(3-methoxyphenyl)ethyl]-2-methyl-4-(6-methyl-7H-pyrrolo[2,3-d]pyrimidin-4-yl)piperazine-1-carboxamide] | 10 to 200 | 10 to 200 |
| NC1CCN(c2ncnc3[nH]ccc23)CC1 [P-0541, 1-(7H-pyrrolo[2,3-d]pyrimidin-4-yl)piperidin-4-amine] | 1 to 10 | 10 to 200 |
| COc1cccc([C@H](C)NC(=O)N2C3CCC2CN(c2ncnc4cc(-c5ccc(F)cc5)sc24)C3)c1 [P-0567, 3-[6-(4-fluorophenyl)thieno[3,2-d]pyrimidin-4-yl]-N-[(1S)-1-(3-methoxyphenyl)ethyl]-3,8-diazabicyclo[3.2.1]octane-8-carboxamide] | 0.0001 to 1 | 10 to 200 |
| C[C@H]1CN(c2ncnc3[nH]c(-c4ccncc4)cc23)CCN1C(=O)NCc1ccc(Cl)cc1 [P-0044, (2S)-N-[(4-chlorophenyl)methyl]-2-methyl-4-[6-(4-pyridyl)-7H-pyrrolo[2,3-d]pyrimidin-4-yl]piperazine-1-carboxamide] | 0.0001 to 1 | 0.0001 to 1 |
| C[C@@H]1CN(c2ncnc3[nH]c(-c4ccncc4)cc23)CCN1C(=O)Nc1ccc(N(C)C)cc1 [P-0066, (2R)-N-(4-dimethylaminophenyl)-2-methyl-4-[6-(4-pyridyl)-7H-pyrrolo[2,3-d]pyrimidin-4-yl]piperazine-1-carboxamide] | 0.0001 to 1 | 1 to 10 |
| C[C@H](NC(=O)N1CCN(c2ncnc3[nH]c(-c4ccc(F)cc4)cc23)C[C@H]1C)c1cccc(OC(F)F)c1 [P-0014, (2R)-N-[(1S)-1-[3-(difluoromethoxy)phenyl]ethyl]-4-[6-(4-fluorophenyl)-7H-pyrrolo[2,3-d]pyrimidin-4-yl]-2-methyl-piperazine-1-carboxamide] | 0.0001 to 1 | 1 to 10 |
| NC(=O)N1CCN(c2ncnc3[nH]c(-c4cccnc4)cc23)CC1 [P-0130, 4-[6-(3-pyridyl)-7H-pyrrolo[2,3-d]pyrimidin-4-yl]piperazine-1-carboxamide] | 1 to 10 | 10 to 200 |
| CCc1ccc(S(=O)(=O)NC2CCN(c3ncnc4[nH]c(-c5cn(C)nc5C)cc34)CC2)cc1 [P-0726, N-[1-[6-(1,3-dimethylpyrazol-4-yl)-7H-pyrrolo[2,3-d]pyrimidin-4-yl]-4-piperidyl]-4-ethyl-benzenesulfonamide] | 0.0001 to 1 | 0.0001 to 1 |
| Cc1cc2c(-c3ccc(NS(=O)(=O)c4ccc(Cl)cc4)cc3)ncnc2[nH]1 [P-0330, 4-chloro-N-[4-(6-methyl-7H-pyrrolo[2,3-d]pyrimidin-4-yl)phenyl]benzenesulfonamide] | 1 to 10 | 1 to 10 |
| O=C(C1CC1)N1CC=C(c2cc3ncnc(-c4ccc(NS(=O)(=O)C5CC5)cc4)c3s2)CC1 [P-0571, N-[4-[6-[1-(cyclopropanecarbonyl)-3,6-dihydro-2H-pyridin-4-yl]thieno[3,2-d]pyrimidin-4-yl]phenyl]cyclopropanesulfonamide] | 0.0001 to 1 | 0.0001 to 1 |
| CN(C)c1ccc(NC(=O)N2CCN(c3ncnc4[nH]c(-c5ccc(C#N)cc5)cc34)CC2)cc1 [P-0070, 4-[6-(4-cyanophenyl)-7H-pyrrolo[2,3-d]pyrimidin-4-yl]-N-(4-dimethylaminophenyl)piperazine-1-carboxamide] | 1 to 10 | 1 to 10 |
| Fc1ccc(-c2cc3c(-c4ccc(NCc5ccc(C(F)(F)F)nc5)nc4)ncnc3[nH]2)cc1 [P-0415, 5-[6-(4-fluorophenyl)-7H-pyrrolo[2,3-d]pyrimidin-4-yl]-N-[[6-(trifluoromethyl)-3-pyridyl]methyl]pyridin-2-amine] | 1 to 10 | 0.0001 to 1 |
| Cn1cc(-c2cc3ncnc(N4CCN(C(=O)NCc5ccccc5)CC4)c3s2)cn1 [P-0626, N-benzyl-4-[6-(1-methylpyrazol-4-yl)thieno[3,2-d]pyrimidin-4-yl]piperazine-1-carboxamide] | 1 to 10 | 10 to 200 |
| C[C@@H]1CN(c2ncnc3[nH]c(-c4ccncc4)cc23)CCN1C(=O)NCc1ccc(F)cc1 [P-0061, (2R)-N-[(4-fluorophenyl)methyl]-2-methyl-4-[6-(4-pyridyl)-7H-pyrrolo[2,3-d]pyrimidin-4-yl]piperazine-1-carboxamide] | 0.0001 to 1 | 1 to 10 |
| COc1ncc(CNC(=O)N2CCN(c3ncnc4[nH]c(-c5ccc(F)cc5)cc34)CC2)cc1F [P-0087, N-[(5-fluoro-6-methoxy-3-pyridyl)methyl]-4-[6-(4-fluorophenyl)-7H-pyrrolo[2,3-d]pyrimidin-4-yl]piperazine-1-carboxamide] | 0.0001 to 1 | 1 to 10 |
| Cc1nn(C)cc1-c1cc2ncnc(N3CCN(C(=O)N[C@@H](C)c4cccc(F)c4)[C@H](C)C3)c2s1 [P-0584, (2R)-4-[6-(1,3-dimethylpyrazol-4-yl)thieno[3,2-d]pyrimidin-4-yl]-N-[(1S)-1-(3-fluorophenyl)ethyl]-2-methyl-piperazine-1-carboxamide] | 0.0001 to 1 | 1 to 10 |
| NC(=O)c1cccc(-c2cc3c(N4CCN(C(=O)Nc5ccc(OC(F)(F)F)cc5)CC4)ncnc3[nH]2)c1 [P-0078, 4-[6-(3-carbamoylphenyl)-7H-pyrrolo[2,3-d]pyrimidin-4-yl]-N-[4-(trifluoromethoxy)phenyl]piperazine-1-carboxamide] | 10 to 200 | 0.0001 to 1 |
| COc1ccc(S(=O)(=O)Nc2ccc(-c3ncnc4[nH]c(-c5ccc(F)cc5)cc34)c(F)c2)cc1 [P-0402, N-[3-fluoro-4-[6-(4-fluorophenyl)-7H-pyrrolo[2,3-d]pyrimidin-4-yl]phenyl]-4-methoxy-benzenesulfonamide] | 0.0001 to 1 | 1 to 10 |
| COc1cc(CNC(=O)N2CCN(c3ncnc4[nH]c(-c5cccnc5)cc34)CC2)ccn1 [P-0127, N-[(2-methoxy-4-pyridyl)methyl]-4-[6-(3-pyridyl)-7H-pyrrolo[2,3-d]pyrimidin-4-yl]piperazine-1-carboxamide] | 1 to 10 | 10 to 200 |
| Cc1c(-c2cc3ncnc(N4CCN(C(=O)NCc5ccc(F)cc5)CC4)c3s2)cnn1C [P-0620, 4-[6-(1,5-dimethylpyrazol-4-yl)thieno[3,2-d]pyrimidin-4-yl]-N-[(4-fluorophenyl)methyl]piperazine-1-carboxamide] | 0.0001 to 1 | 1 to 10 |
| CC1(C)C=C(c2cc3c(-c4ccc(NS(=O)(=O)c5ccc(F)cc5)cc4)ncnc3[nH]2)CC(C)(C)O1 [P-0298, 4-fluoro-N-[4-[6-(2,2,6,6-tetramethyl-3H-pyran-4-yl)-7H-pyrrolo[2,3-d]pyrimidin-4-yl]phenyl]benzenesulfonamide] | 1 to 10 | 10 to 200 |
| COc1cc([C@H](C)NC(=O)N2CCN(c3ncnc4[nH]c(-c5ccc(F)cc5)cc34)C[C@H]2C)ccc1F [P-0004, (2R)-N-[(1S)-1-(4-fluoro-3-methoxy-phenyl)ethyl]-4-[6-(4-fluorophenyl)-7H-pyrrolo[2,3-d]pyrimidin-4-yl]-2-methyl-piperazine-1-carboxamide] | 0.0001 to 1 | 10 to 200 |
